Patent US9573957B2 (Boehringer Ingelheim International GmbH, priority 2013, dated 2017)

How the values were obtained:
[1] = test system: synthesis of LTB4 in human whole blood; experiment: LTB4 production inhibition assay in human whole blood (HWB); type: cell-based; settings: heparinized human whole blood, 15 min at 37° C., Calcimycin 20 μM 30 min, plasma LTB4 by HTRF
Summary of the method: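 Heparinized human whole blood preincubated with compound 15 min at 37° C, then stimulated with calcimycin (20 μM final) for 30 min at 37° C. Plasma separated by centrifugation; LTB4 measured by antibody-based homogeneous time-resolved fluorescence.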

human LTA4 hydrolase = human LTA4 hydrolase (Homo sapiens (Human), UniProt P09960); experiment: LTA4H Enzyme assay (peptidase, Arg-AMC cleavage); type: biochemical; settings: LTA4H Enzyme 1 nM, Arg-AMC substrate 50 μM, room temperature 1 h, fluorescence
Chain of human LTA4 hydrolase (P09960 whole entry): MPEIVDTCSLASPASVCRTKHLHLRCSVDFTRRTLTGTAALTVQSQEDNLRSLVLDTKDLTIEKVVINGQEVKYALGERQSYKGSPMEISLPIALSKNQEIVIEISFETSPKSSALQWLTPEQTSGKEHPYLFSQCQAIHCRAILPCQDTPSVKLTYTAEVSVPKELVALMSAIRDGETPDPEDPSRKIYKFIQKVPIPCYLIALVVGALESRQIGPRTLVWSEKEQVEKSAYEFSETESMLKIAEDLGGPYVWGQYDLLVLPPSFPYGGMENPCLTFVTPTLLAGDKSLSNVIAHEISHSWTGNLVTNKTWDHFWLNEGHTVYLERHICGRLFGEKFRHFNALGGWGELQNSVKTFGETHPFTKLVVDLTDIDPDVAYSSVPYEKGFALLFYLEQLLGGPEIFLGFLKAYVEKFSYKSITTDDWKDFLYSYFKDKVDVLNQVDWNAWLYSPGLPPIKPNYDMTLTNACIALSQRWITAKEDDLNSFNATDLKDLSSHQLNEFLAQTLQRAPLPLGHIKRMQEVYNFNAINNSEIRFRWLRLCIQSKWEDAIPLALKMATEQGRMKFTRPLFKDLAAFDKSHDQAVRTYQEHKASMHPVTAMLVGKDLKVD
Summary of the method: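 Peptidase activity of human LTA4H (1 nM final) on Arg-AMC (50 μM final), with compound, 1 h at room temperature. Buffer: 50 mM Tris-HCl pH 7.5, 100 mM KCl, 0.5% BSA.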

Structure (SMILES) | IC50 [1] [nM] | IC50 (human LTA4 hydrolase) [nM]
CC(C)(O)CC(=O)N1CCN(Cc2ccc3cc(Oc4ccc(-c5ccn[nH]5)cn4)ccc3n2)CC1 [Example 122, 3-Hydroxy-3-methyl-1-(4-{6-[5-(2H-pyrazol-3-yl)-pyridin-2-yloxy]-quinolin-2-ylmethyl}-piperazin-1-yl)-butan-1-one] | 570 | 3.9
C[C@@H](O)C(=O)N1CCN(Cc2ccc3cc(Oc4ccc(-c5ccn[nH]5)cn4)ccc3n2)CC1 [Example 123, (R)-2-Hydroxy-1-(4-{6-[5-(2H-pyrazol-3-yl)-pyridin-2-yloxy]-quinolin-2-ylmethyl}-piperazin-1-yl)-propan-1-one] | 200 | 0.88
CCOCC(=O)N1CCN(Cc2ccc3cc(Oc4ccc(-c5ccn[nH]5)cn4)ccc3n2)CC1 [Example 124, 2-Ethoxy-1-(4-{6-[5-(2H-pyrazol-3-yl)-pyridin-2-yloxy]-quinolin-2-ylmethyl}-piperazin-1-yl)-ethanone] | 420 | 2.6
CC(C)(O)C(=O)N1CCN(Cc2ccc3cc(Oc4ccc(-c5ccn[nH]5)cn4)ccc3n2)CC1 [Example 125, 2-Hydroxy-2-methyl-1-(4-{6-[5-(2H-pyrazol-3-yl)-pyridin-2-yloxy]-quinolin-2-ylmethyl}-piperazin-1-yl)-propan-1-one] | 340 | 1.2
O=C(N1CCN(Cc2ccc3cc(Oc4ccc(-c5ccn[nH]5)cn4)ccc3n2)CC1)C1(O)CC1 [Example 126, (1-Hydroxy-cyclopropyl)-(4-{6-[5-(2H-pyrazol-3-yl)-pyridin-2-yloxy]-quinolin-2-ylmethyl}-piperazin-1-yl)-methanone] | 250 | 1
CC[C@H](O)C(=O)N1CCN(Cc2ccc3cc(Oc4ccc(-c5ccn[nH]5)cn4)ccc3n2)CC1 [Example 127, (S)-2-Hydroxy-1-(4-{6-[5-(2H-pyrazol-3-yl)-pyridin-2-yloxy]-quinolin-2-ylmethyl}-piperazin-1-yl)-butan-1-one] | 320 | 2.3
COC(C)(C)C(=O)N1CCN(Cc2ccc3cc(Oc4ccc(-c5ccn[nH]5)cn4)ccc3n2)CC1 [Example 128, 2-Methoxy-2-methyl-1-(4-{6-[5-(2H-pyrazol-3-yl)-pyridin-2-yloxy]-quinolin-2-ylmethyl}-piperazin-1-yl)-propan-1-one] | 240 | 0.56
C[C@H](O)C(=O)N1CCN(Cc2ccc3cc(Oc4ccc(-c5ccn[nH]5)cn4)ccc3n2)CC1 [Example 129, (S)-2-Hydroxy-1-(4-{6-[5-(2H-pyrazol-3-yl)-pyridin-2-yloxy]-quinolin-2-ylmethyl}-piperazin-1-yl)-propan-1-one] | 180 | 0.86
CC(C)OCC(=O)N1CCN(Cc2ccc3cc(Oc4ccc(-c5ccn[nH]5)cn4)ccc3n2)CC1 [Example 130, 2-Isopropoxy-1-(4-{6-[5-(2H-pyrazol-3-yl)-pyridin-2-yloxy]-quinolin-2-ylmethyl}-piperazin-1-yl)-ethanone] | 630 | 2.5
O=C(C1CCOCC1)N1CCN(Cc2ccc3cc(Oc4ccc(-c5ccn[nH]5)cn4)ccc3n2)CC1 [Example 131, (4-{6-[5-(2H-Pyrazol-3-yl)-pyridin-2-yloxy]-quinolin-2-ylmethyl}-piperazin-1-yl)-(tetrahydro-pyran-4-yl)-methanone] | 360 | 2.3
O=C([C@@H]1CCCO1)N1CCN(Cc2ccc3cc(Oc4ccc(-c5ccn[nH]5)cn4)ccc3n2)CC1 [Example 132, (4-{6-[5-(2H-Pyrazol-3-yl)-pyridin-2-yloxy]-quinolin-2-ylmethyl}-piperazin-1-yl)-(S)-tetrahydro-furan-2-yl-methanone] | 630 | 2.9
O=C([C@H]1CCCO1)N1CCN(Cc2ccc3cc(Oc4ccc(-c5ccn[nH]5)cn4)ccc3n2)CC1 [Example 133, (4-{6-[5-(2H-Pyrazol-3-yl)-pyridin-2-yloxy]-quinolin-2-ylmethyl}-piperazin-1-yl)-(R)-tetrahydro-furan-2-yl-methanone] | 320 | 2.9
